Data taken from paper PMC11714206, “Massively Parallel Screening of Toll/Interleukin‐1 Receptor (TIR)‐Derived Peptides Reveals Multiple Toll‐Like Receptors (TLRs)‐Targeting Immunomodulatory Peptides” (Advanced Science, 2024).

Biological target: T1, MAL^TIR (Homo sapiens, UniProt P58753)
T1 construct: MAL (residues 79–221); 6xHis; made in house; host or cells: E. coli BL21 (DE3)
Test: T‐Surf phage library (P8 and P3) selection against MAL^TIR, four rounds, NGS read counts
Assay type: binding
Settings: for P8_MAL Rank (after) / P8_MAL Rank (before): P8 library; for Population: 4th round of selection against MAL TIR, share of NGS reads; for P3_MAL Rank (after) / P3_MAL Rank (before): P3 library
Outline: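 Read counts come from NGS of phage pools after the fourth selection round, barcoded by 20-cycle PCR and filtered for quality ≥30. Each round: phage incubated 1 h at RT on immobilised TIR protein (5 µg mL^−1, BSA-blocked), washed, HCl-eluted and amplified in E. coli TG1.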

[1] = 4R selection against MAL, rank after grouping
[2] = 4R selection against MAL, rank before grouping
[3] = P3_MAL pool: P3 T-Surf phage library
[4] = selection against MAL TIR, rank by count after grouping
[5] = selection against MAL TIR, rank by count before grouping
[6] = selection against MAL, rank after grouping
[7] = selection against MAL, rank before grouping
[8] = P3_MAL: rank by count after grouping
[9] = P3_MAL: rank by count before grouping
[10] = selection against MAL, rank by count after grouping
[11] = selection against MAL, rank by count before grouping
[12] = P8_MAL pool: P8 T-Surf phage library
[13] = P8_MAL: rank by count after grouping
[14] = P8_MAL: rank by count before grouping

T1 sequence (P58753 79-221): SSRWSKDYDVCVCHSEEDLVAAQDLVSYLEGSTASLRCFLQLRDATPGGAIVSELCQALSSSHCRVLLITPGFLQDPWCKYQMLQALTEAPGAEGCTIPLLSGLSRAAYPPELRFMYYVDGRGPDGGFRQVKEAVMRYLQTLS

## DTRYTFIAHLSHALNL
[1]
  P8_MAL Rank (after): 651
[2]
  P8_MAL Rank (before): 2040

## PNLRTKVLNYLMRSKT
[3]
  Population: 0.00451%

## HFFWVKLKSILGETSL
[1]
  P8_MAL Rank (after): 592
[2]
  P8_MAL Rank (before): 2396

## QLIQQWSELHLLQLHL
[1]
  P8_MAL Rank (after): 621
[2]
  P8_MAL Rank (before): 2387

## FTLAVQVRNLLVGAFI
[4]
  P8_MAL Rank (after): 262
[5]
  P8_MAL Rank (before): 1099

## RNLGAYLFQALANKGI
[4]
  P8_MAL Rank (after): 254
[5]
  P8_MAL Rank (before): 2246

## WFLTAFRVAMEQVADT
[1]
  P8_MAL Rank (after): 662
[2]
  P8_MAL Rank (before): 1359

## LFYERLVSLILRDTRG
[6]
  P8_MAL Rank (after): 496
[7]
  P8_MAL Rank (before): 1104

## RNLAGLVYDCLTKTGA
[8]
  Rank (after): 407
[9]
  Rank (before): 2606

## DQCRNALTAAANLSGW
[4]
  P3_MAL Rank (after): 201
[5]
  P3_MAL Rank (before): 1953

## QLIQPWMELHLHQLHL
[4]
  P8_MAL Rank (after): 246
[5]
  P8_MAL Rank (before): 2346

## AFFGAQLKSVLRNPTM
[4]
  P8_MAL Rank (after): 191
[5]
  P8_MAL Rank (before): 1739

## GPDTRRKFISFLYKEL
[10]
  P3_MAL Rank (after): 683
[11]
  P3_MAL Rank (before): 1767

## SFFWSKLSYHLPAPQH
[6]
  P3_MAL Rank (after): 559
[7]
  P3_MAL Rank (before): 2991

## LQNQWKLALTNVASLV
[8]
  Rank (after): 459
[9]
  Rank (before): 2149

## YAFTGHLHRYLQAKDH
[6]
  P3_MAL Rank (after): 496
[7]
  P3_MAL Rank (before): 1419

## KWFWDKLIYALSRNPH
[4]
  P8_MAL Rank (after): 231
[5]
  P8_MAL Rank (before): 1067

## AFLYTFLINPTHPTNF
[12]
  Population: 0.00309%

## YFLHFLLFSLRKPSI
[4]
  P8_MAL Rank (after): 197
[5]
  P8_MAL Rank (before): 779

## WFFERLVRPILRGTQG
[6]
  P8_MAL Rank (after): 559
[7]
  P8_MAL Rank (before): 1113

## WFYERLVSLILRYTKE
[4]
  P8_MAL Rank (after): 222
[5]
  P8_MAL Rank (before): 1197

## NQCSNALTGAAILSGW
[1]
  P3_MAL Rank (after): 641
[2]
  P3_MAL Rank (before): 3329

## SLLYDHLRCWAFVRF
[6]
  P8_MAL Rank (after): 501
[7]
  P8_MAL Rank (before): 2512

## RLWDRLRYLMPRNNHH
[6]
  P3_MAL Rank (after): 571
[7]
  P3_MAL Rank (before): 2325

## YAFKGNLHRYLVQRGV
[8]
  Rank (after): 162
[9]
  Rank (before): 1483

## YAFTGHLHRYLVQRAL
[3]
  Population: 0.00451%
[8]
  Rank (after): 104
[9]
  Rank (before): 149

## HQSFWARTWAALIAPS
[10]
  P3_MAL Rank (after): 724
[11]
  P3_MAL Rank (before): 2849

## QLIQQWSELHLHQLQL
[13]
  Rank (after): 443
[14]
  Rank (before): 2381

## TFLGHLYNMLIQAGIH
[13]
  Rank (after): 393
[14]
  Rank (before): 2595

## MSMRPGDRLQRSGI
[8]
  Rank (after): 454
[9]
  Rank (before): 2967

## RNFVAYLFQALAKKGS
[1]
  P8_MAL Rank (after): 591
[2]
  P8_MAL Rank (before): 2191

## AFLGEQLHTMVDKPTM
[6]
  P8_MAL Rank (after): 491
[7]
  P8_MAL Rank (before): 1776

## NQWRNALTAAANLSVC
[1]
  P3_MAL Rank (after): 610
[2]
  P3_MAL Rank (before): 3370

## WFYEPLVSVILPDTKV
[6]
  P8_MAL Rank (after): 561
[7]
  P8_MAL Rank (before): 1292

## TSHLHHAMRLNKIDTF
[1]
  P3_MAL Rank (after): 633
[2]
  P3_MAL Rank (before): 3244

## LFCWESLKQLLRSDCR
[13]
  Rank (after): 169
[14]
  Rank (before): 2151

## HFFLDSTEKHSGRNQL
[4]
  P8_MAL Rank (after): 277
[5]
  P8_MAL Rank (before): 2392

## AFFWAQLKSVLGNRTM
[12]
  Population: 0.00309%

## NQWHNALAAAANLLGL
[8]
  Rank (after): 473
[9]
  Rank (before): 3418

## SFLHFLLFSRPDTEYI
[13]
  Rank (after): 413
[14]
  Rank (before): 1436

## DPKLNTGESIAPELLR
[6]
  P8_MAL Rank (after): 493
[7]
  P8_MAL Rank (before): 1991

## YAFTGHLHRYLVQRA
[8]
  Rank (after): 137
[9]
  Rank (before): 398

## HQAFWDRLWAKLKAPI
[6]
  P8_MAL Rank (after): 546
[7]
  P8_MAL Rank (before): 2337

## HHKGSYGEALAEDEER
[1]
  P3_MAL Rank (after): 580
[2]
  P3_MAL Rank (before): 2826

## AFLCTFLINLTHNTTF
[13]
  Rank (after): 185
[14]
  Rank (before): 1757

## DWIREQLRPALKKRLP
[6]
  P3_MAL Rank (after): 520
[7]
  P3_MAL Rank (before): 1989

## YFLHFLLVSRAEAEFI
[6]
  P8_MAL Rank (after): 565
[7]
  P8_MAL Rank (before): 1499

## WFYERLVSLILRYTKV
[12]
  Population: 0.00309%

## ELDFSHFWLFDGEAGGEP
[6]
  P8_MAL Rank (after): 569
[7]
  P8_MAL Rank (before): 2048

## AFFWAQLNSVLGNTTM
[10]
  P8_MAL Rank (after): 710
[11]
  P8_MAL Rank (before): 1608

## QLIQQWIELQLRQLHL
[1]
  P8_MAL Rank (after): 584
[2]
  P8_MAL Rank (before): 2356

## WFYERLVSLILPVTKV
[4]
  P8_MAL Rank (after): 229
[5]
  P8_MAL Rank (before): 1264

## AFLYTFLNNLIHPTTF
[13]
  Rank (after): 145
[14]
  Rank (before): 1868

## RLLKWKDALYEAANLS
[8]
  Rank (after): 110
[9]
  Rank (before): 342

## LLFWGSLKQLLRSDGR
[13]
  Rank (after): 111
[14]
  Rank (before): 2159

## TFLCHQYNALVQAGIH
[4]
  P8_MAL Rank (after): 219
[5]
  P8_MAL Rank (before): 2547

## RGFTSHLYHRIQRNSN
[1]
  P3_MAL Rank (after): 605
[2]
  P3_MAL Rank (before): 2419

## PNLRPQVLNYLIRTKT
[4]
  P3_MAL Rank (after): 208
[5]
  P3_MAL Rank (before): 2670

## TFLGAQHKTVVRAATH
[6]
  P8_MAL Rank (after): 524
[7]
  P8_MAL Rank (before): 2534

## NQCRNALTAAANLSGW
[3]
  Population: 0.00376%

## RLLKWIETLHQFHSWV
[1]
  P3_MAL Rank (after): 653
[2]
  P3_MAL Rank (before): 2489

## YAFTGHVDRYLVQRGV
[4]
  P3_MAL Rank (after): 285
[5]
  P3_MAL Rank (before): 1360

## AFLCPQLKSVLGNPTI
[13]
  Rank (after): 133
[14]
  Rank (before): 1753

## SFYWRQVSIILGDPTV
[4]
  P8_MAL Rank (after): 249
[5]
  P8_MAL Rank (before): 1442

## AFLGTAAYRAGQTDD
[13]
  Rank (after): 430
[14]
  Rank (before): 1777

## LVAHEISKKMNIFATV
[10]
  P3_MAL Rank (after): 764
[11]
  P3_MAL Rank (before): 2101

## KLIQGGCLYRLLKIEQ
[13]
  Rank (after): 421
[14]
  Rank (before): 2752

## RLLKWKDALHQFHSWV
[3]
  Population: 0.0132%

## TFLATLYNALAQAGIH
[13]
  Rank (after): 449
[14]
  Rank (before): 2620

## SAFVAPLSEALNQRAL
[1]
  P3_MAL Rank (after): 675
[2]
  P3_MAL Rank (before): 2980

## VEPTQVRKLRGAVEKV
[10]
  P3_MAL Rank (after): 743
[11]
  P3_MAL Rank (before): 1658

## AFLWTQLKSLLRNTTM
[6]
  P8_MAL Rank (after): 534
[7]
  P8_MAL Rank (before): 1765

## YTALTNSGFHAFSDKD
[13]
  Rank (after): 456
[14]
  Rank (before): 1556

## WFMMTFRTVLHHVHDV
[13]
  Rank (after): 425
[14]
  Rank (before): 1374

## YLKWGYPWFWIVCVL
[13]
  Rank (after): 143
[14]
  Rank (before): 1546

## RNFGVYLFQALANKGI
[13]
  Rank (after): 409
[14]
  Rank (before): 2238

## YAFTAICIVIWCSVA
[8]
  Rank (after): 133
[9]
  Rank (before): 726

## TFLGFLYIALVQAGFL
[10]
  P8_MAL Rank (after): 724
[11]
  P8_MAL Rank (before): 2549

## AFLYTFLINLTHPTIH
[13]
  Rank (after): 161
[14]
  Rank (before): 852

## RNFVAYLLQALAHKCI
[13]
  Rank (after): 420
[14]
  Rank (before): 2221
